# Strand notation (5' to 3'): a small letter for the sugar, then the base; units joined by * are phosphorothioate-linked, units joined directly phosphodiester-linked; [ ] holds rarer units or linkages, { } end groups; capitals alone tell only the bases. [PAM-N] = nucleoside carrying a 2'-(butylacetamido)-palmitamide group (palmitic acid C16 conjugate) (N: the base); e = 2'-O-(2-methoxyethyl) (MOE); l = locked nucleic acid (LNA); [5mC] = 5-methylcytosine; d = 2'-deoxy (DNA)
# What was measured:
# ApoB mRNA = ApoB mRNA in liver and estimated ED50, compounds comprising palmitic acid conjugates (Table 95); format: in vivo, mouse; settings: ApoB mRNA in liver, Balb/c mice, relative to saline
# Procedure: 0.4, and 0.16 umol/kg. Each dose group consisted of four animals. A 5-10-5 MOE gapmer was used for a control treatment. Mice were sacrificed approximately 48 hours following the final dose. Liver tissue was collected for RNA isolation, and blood was collected for serum chemistry analyses. ApoB mRNA levels were measured by real-time PCR as described herein. ApoB mRNA levels were normalized to RNA levels as determined by RIBOGREEN, and are presented in Table 95 as percent inhibition relative to ApoB mRNA levels in saline-treated control animals.
# At the 2.5 umol/kg dose, ApoB inhibition by the short antisense compounds was greater than observed with a 5-10-5 MOE gapmer at an equivalent dose. […] Triglycerides were reduced at the 2.5 and […] doses of ISIS 387462 and ISIS 391872.
# GCGR mRNA = experiment: Antisense inhibition of GCGR in HepG2 cells (Table 79); format: cell-based, human; settings: HepG2, 25, 50, 100 or 200 nM
# Procedure: Short antisense compounds targeted to a GCGR nucleic acid were tested for their effects on GCGR mRNA in vitro.
# Cultured HepG2 cells at a density of 10000 cells per well in a 96-well plate were treated as described herein with 25, 50, 100 or 200 nM of antisense oligonucleotide. After the treatment period, RNA was isolated from the cells and GCGR mRNA levels were measured by quantitative real-time PCR, as described herein. GCGR mRNA levels were adjusted according to total RNA content as measured by RIBOGREEN®. Results are presented as percent reduction in GCGR mRNA, relative to untreated control cells.
# mouse SGLT2 mRNA [1] = experiment: Mouse SGLT2 mRNA in kidney, MOE versus Methyleneoxy BNA gapmers (Table 69); format: in vivo; settings: Balb/c mouse kidney
# Procedure: The effect of ISIS 3796921-10-1 MOE gapmer and ISIS 3886252-8-2 MOE gapmer are compared with the effect of ISIS 3921701-10-1 Methyleneoxy BNA Gapmer and ISIS 3921732-8-2 Methyleneoxy BNA Gapmer (see Table 69) on mouse SGLT2 mRNA levels in vivo. Data are taken from three experiments in which male 6-week old Balb/c mice were dosed twice per week for three weeks with 5, 25 and 125 nmol/kg of either the ISIS 3796921-10-1 MOE gapmer or the ISIS 3886252-8-2 MOE gapmer given by intraperitoneal injection. Mice were sacrificed 48 hours following last administration and evaluated for SGLT2 mRNA levels in kidney. Target levels were determined by RT, real-time PCR as described by other examples herein. PCR results were normalized to an internal ISIS control. The data are expressed as percent change (“+” indicates an increase, “−” indicates a decrease) relative to saline treated animals and are illustrated in Table 69.
# mouse SGLT2 mRNA [2] = experiment: Mouse SGLT2 mRNA in kidney, additional 1-10-1 and 2-8-2 MOE gapmers (Table 68); format: in vivo; settings: Balb/c mouse kidney
# Procedure: 1-10-1 and 2-8-2 MOE gapmer short antisense compounds were designed to target different regions of the mouse SGLT2 RNA but have complementarity across species. […] All cytidine residues are 5-methylcytidines.
# The short antisense compounds were analyzed for their effect on mouse SGLT2 mRNA levels in vivo. Data was taken from three experiments in which male 6-week old Balb/c mice were dosed twice per week for three weeks with 0.5, 0.1, or 0.02 umol/kg of either a 1-10-1 or 2-8-2 MOE gapmer given by intraperitoneal injection. Mice were sacrificed 48 hours following last administration and evaluated for SGLT2 levels in kidney. Target levels were determined by RT, real-time PCR as described by other examples herein. PCR results were normalized to an internal ISIS control.
# rat SGLT2 mRNA [3] = experiment: Rat SGLT2 mRNA in kidney, 1-10-1 and 2-8-2 MOE gapmer (Table 70); format: in vivo; settings: Sprague-Dawley rat kidney
# Procedure: The effect of ISIS 3796921-10-1 MOE gapmer and ISIS 388625 MOE 2-8-2 gapmer (see Table 70) on rat SGLT2 mRNA levels in vivo. […] Rats were sacrificed 48 hours following last administration and evaluated for SGLT2 levels in kidney. Target levels were determined by RT, real-time PCR as described by other examples herein. PCR results were normalized to an internal ISIS control.
# rat SGLT2 mRNA [4] = experiment: Rat SGLT2 mRNA in kidney, 1-10-1 and 1-10-2 MOE gapmers, Sprague-Dawley rats (Table 63); format: in vivo
# Description: 1-10-1 and 1-10-2 MOE gapmer antisense compounds, provided in Table 62, were designed to target different regions of the mouse or rat SGLT2 RNA. All short antisense compounds in Table 62 are chimeric oligonucleotides (“gapmers”) either 12 or 13 nucleotides in length, composed of a central “gap” segment consisting of ten 2′-deoxynucleotides, which are flanked on the 5′ side by a one-nucleoside “wing” and on the 3′ side by a two or one-nucleotide “wing”. […] All cytidine residues are 5-methylcytidines.
# The short antisense compounds were analyzed for their effect on rat SGLT2 mRNA levels. Data are ranges taken from three experiments in which Male Sprague-Dawley rats (170-200 g) were dosed twice per week for three weeks with 450, 150 or 50 nmol/kg of either a 1-10-1 or 1-10-2 MOE gapmer given by intraperitoneal injection. Rats were sacrificed 48 hours following last administration and evaluated for SGLT2 mRNA levels in kidney. Target levels were determined by RT, real-time PCR as described by other examples herein. PCR results were normalized to an internal ISIS control.
# rat SGLT2 mRNA [5] = experiment: Rat SGLT2 mRNA in kidney, 1-10-1 gapmers, 250 nmol/kg (Table 66); format: in vivo; settings: 250 nmol/kg i.p. twice per week for three weeks, Sprague-Dawley rat kidney
# Procedure: The effect of the above 1-10-1 gapmers (see Table 64 above) on rat SGLT2 mRNA levels. Data are taken from four experiments in which male Sprague-Dawley rats (170-200 g) were dosed twice per week for three weeks with 250 nmol/kg given by intraperitoneal injection. Rats were sacrificed 48 hours following last administration and evaluated for SGLT2 mRNA levels in kidney. Target levels were determined by RT, real-time PCR as described by other examples herein. PCR results were normalized to an internal ISIS control.
# mouse SGLT2 mRNA [6] = experiment: Mouse SGLT2 mRNA in kidney, 1-10-1 MOE gapmers, Balb/c mice (Table 65); format: in vivo
# Procedure: The short antisense compounds were analyzed for their effect on mouse SGLT2 mRNA levels. Data was taken from three experiments in which Male 6-week old Balb/c mice were dosed twice per week for two weeks with 450, 150, or 50 nmol/kg of one of the above 1-10-1 MOE gapmers given by intraperitoneal injection. Mice were sacrificed 48 hours following last administration and evaluated for SGLT2 mRNA levels in kidney. Target levels were determined by RT, real-time PCR as described by other examples herein. PCR results were normalized to an internal ISIS control.
# [7] = HbA1c status in ZDF rat (Table 72); format: in vivo; settings: ZDF rats, 400 nM/kg i.p. once a week for twelve weeks; compared to PBS and control
# Procedure: (§1) ISIS 388625, 388626 and control oligo ISIS 388628 were analyzed for their effect on ZDF rat plasma glucose levels and HbA1c. The leptin receptor deficient Zucker diabetic fatty (ZDF) rat is a useful model for the investigation of type 2 diabetes. Diabetes develops spontaneously in these male rats at ages 8-10 weeks, and is associated with hyperphagia, polyuria, polydipsia, and impaired weight gain, symptoms which parallel the clinical symptoms of diabetes (Phillips M S, et al., 1996, Nat Genet. 13, 18-19). Six week old ZDF rats were injected intraperitoneally with short antisense compound at a dose of 400 nM/kg once a week for twelve weeks. Data are illustrated in Tables 71 and 72.
# [8] = Plasma glucose in ZDF rat (Table 71); format: in vivo; settings: ZDF rats, 400 nM/kg i.p. once a week for twelve weeks; compared to PBS and control
# Procedure: as §1
# [9] = 0.02 umol/kg i.p. twice per week for three weeks
# [10] = 0.1 umol/kg i.p. twice per week for three weeks
# [11] = 0.5 umol/kg i.p. twice per week for three weeks
substance,measurement,setting,value
391872 ([PAM-G]*lG*dT*dA*dC*dA*dT*dG*dG*dA*dA*dG*lT*l[5mC]) [compound 391872],% Inhib,ApoB mRNA; single i.p. injection 0.16 umol/kg,18%
same,% Inhib,ApoB mRNA; single i.p. injection 0.4 umol/kg,50%
same,% Inhib,ApoB mRNA; single i.p. injection 1.0 umol/kg,92%
ISIS 327161: 3-10-3 MOE gapmer targeted to GCGR (eA*eG*e[5mC]*dT*dG*d[5mC]*dT*dG*dT*dA*d[5mC]*eA*eT*e[5mC]),GCGR mRNA,GCGR mRNA,reduced GCGR mRNA in a dose-dependent manner
"ISIS 379692: 1-10-1 MOE gapmer, SGLT2 (eT*dG*dT*dT*d[5mC]*d[5mC]*dA*dG*d[5mC]*d[5mC]*d[5mC]*eA)","SGLT2 mRNA, percent change relative to saline treated animals",mouse SGLT2 mRNA [1]; 5 nmol/kg i.p. twice per week for three weeks,−7%
same,"SGLT2 mRNA, percent change relative to saline treated animals",mouse SGLT2 mRNA [1]; 25 nmol/kg i.p. twice per week for three weeks,−46%
same,"SGLT2 mRNA, percent change relative to saline treated animals",mouse SGLT2 mRNA [1]; 125 nmol/kg i.p. twice per week for three weeks,−58%
same,% change in SGLT2 expression relative to saline,mouse SGLT2 mRNA [2]; [9],−55%
same,% change in SGLT2 expression relative to saline,mouse SGLT2 mRNA [2]; [10],−75%
same,% change in SGLT2 expression relative to saline,mouse SGLT2 mRNA [2]; [11],−85%
same,% change in SGLT2 expression relative to saline,rat SGLT2 mRNA [3]; dose 3.125 umol/kg [sic] i.p. twice per week for three weeks,+30%
same,% change in SGLT2 expression relative to saline,rat SGLT2 mRNA [3]; dose 12.5 umol/kg [sic] i.p. twice per week for three weeks,−15%
same,% change in SGLT2 expression relative to saline,rat SGLT2 mRNA [3]; dose 50 umol/kg [sic] i.p. twice per week for three weeks,−65%
same,% change in SGLT2 expression relative to saline,rat SGLT2 mRNA [3]; dose 200 umol/kg [sic] i.p. twice per week for three weeks,−80%
same,% change in SGLT2 expression relative to saline,rat SGLT2 mRNA [4]; 50 nmol/kg i.p. twice per week for three weeks,−80%
same,% change in SGLT2 expression relative to saline,rat SGLT2 mRNA [4]; 150 nmol/kg i.p. twice per week for three weeks,−85%
same,% change in SGLT2 expression relative to saline,rat SGLT2 mRNA [4]; 450 nmol/kg i.p. twice per week for three weeks,−90%
same,% change in SGLT2 expression relative to saline,rat SGLT2 mRNA [5],−85%
same,% change in SGLT2 expression relative to saline,mouse SGLT2 mRNA [6]; 50 nmol/kg i.p. twice per week for two weeks,−52.5%
same,% change in SGLT2 expression relative to saline,mouse SGLT2 mRNA [6]; 150 nmol/kg i.p. twice per week for two weeks,−70%
same,% change in SGLT2 expression relative to saline,mouse SGLT2 mRNA [6]; 450 nmol/kg i.p. twice per week for two weeks,−80%
"ISIS 388626: GGCATGAGCTTC 2-8-2 MOE, SGLT2 (eG*eG*d[5mC]*dA*dT*dG*dA*dG*d[5mC]*dT*eT*e[5mC])",% change in SGLT2 expression relative to saline,mouse SGLT2 mRNA [2]; [9],−45%
same,% change in SGLT2 expression relative to saline,mouse SGLT2 mRNA [2]; [10],−60%
same,% change in SGLT2 expression relative to saline,mouse SGLT2 mRNA [2]; [11],−80%
same,HbA1C,[7],significantly reduced
same,Plasma glucose levels,[8],significantly reduced
